# Assay results taken from patent publication US10231954B2, “Neurodegenerative therapies” (LYTIX BIOPHARMA AS, priority 2014, dated 2019).
# How the values were obtained:
# Type in all cases: biochemical
# [1] = molecular target: ERK1 (Homo sapiens, UniProt P27361); experiment: Kinase profiling ERK1; settings: 100 micromolar inhibitor concentration, 100 is no change
# Text: (§1) Any value less that 25 is considered to be highly significant inhibition.
# [2] = molecular target: ERK2 (Homo sapiens, UniProt P28482); experiment: Kinase profiling ERK2; settings: 100 micromolar inhibitor concentration, 100 is no change
# Text: as §1
# [3] = molecular target: JNK2 (Homo sapiens, UniProt P45984); experiment: Kinase profiling JNK2; settings: 100 micromolar inhibitor concentration, 100 is no change
# Text: as §1
# [4] = molecular target: T1, p38g MAPK (Homo sapiens, UniProt P53778); experiment: Kinase profiling p38g MAPK; settings: 100 micromolar inhibitor concentration, 100 is no change
# T1 sequence (P53778 1-367): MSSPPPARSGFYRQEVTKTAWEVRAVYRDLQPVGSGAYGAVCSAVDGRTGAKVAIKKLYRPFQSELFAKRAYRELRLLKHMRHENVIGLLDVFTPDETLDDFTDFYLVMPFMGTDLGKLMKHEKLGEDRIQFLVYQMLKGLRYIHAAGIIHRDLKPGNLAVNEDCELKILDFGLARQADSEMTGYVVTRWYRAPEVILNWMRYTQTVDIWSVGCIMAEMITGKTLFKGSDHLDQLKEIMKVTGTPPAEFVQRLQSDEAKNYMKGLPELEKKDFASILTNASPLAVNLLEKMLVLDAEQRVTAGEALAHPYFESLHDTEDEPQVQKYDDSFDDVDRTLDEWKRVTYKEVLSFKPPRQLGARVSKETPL
# Text: as §1
# [5] = molecular target: T2, p38d MAPK (Homo sapiens, UniProt O15264); experiment: Kinase profiling p38d MAPK; settings: 100 micromolar inhibitor concentration, 100 is no change
# T2 sequence (O15264 1-365): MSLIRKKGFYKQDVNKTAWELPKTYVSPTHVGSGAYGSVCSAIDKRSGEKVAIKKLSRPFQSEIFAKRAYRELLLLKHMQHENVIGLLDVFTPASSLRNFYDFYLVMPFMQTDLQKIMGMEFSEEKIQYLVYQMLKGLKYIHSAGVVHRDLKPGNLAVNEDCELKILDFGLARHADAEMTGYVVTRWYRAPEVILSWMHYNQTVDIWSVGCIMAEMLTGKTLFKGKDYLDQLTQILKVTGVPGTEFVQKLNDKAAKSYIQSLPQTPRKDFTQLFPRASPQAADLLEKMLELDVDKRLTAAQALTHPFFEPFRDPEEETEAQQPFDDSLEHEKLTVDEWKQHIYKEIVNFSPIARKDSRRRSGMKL
# Text: as §1
# [6] = molecular target: RSK1 (Homo sapiens, UniProt Q15418); experiment: Kinase profiling RSK1; settings: 100 micromolar inhibitor concentration, 100 is no change
# RSK1, sequence (Q15418 whole entry, species assumed): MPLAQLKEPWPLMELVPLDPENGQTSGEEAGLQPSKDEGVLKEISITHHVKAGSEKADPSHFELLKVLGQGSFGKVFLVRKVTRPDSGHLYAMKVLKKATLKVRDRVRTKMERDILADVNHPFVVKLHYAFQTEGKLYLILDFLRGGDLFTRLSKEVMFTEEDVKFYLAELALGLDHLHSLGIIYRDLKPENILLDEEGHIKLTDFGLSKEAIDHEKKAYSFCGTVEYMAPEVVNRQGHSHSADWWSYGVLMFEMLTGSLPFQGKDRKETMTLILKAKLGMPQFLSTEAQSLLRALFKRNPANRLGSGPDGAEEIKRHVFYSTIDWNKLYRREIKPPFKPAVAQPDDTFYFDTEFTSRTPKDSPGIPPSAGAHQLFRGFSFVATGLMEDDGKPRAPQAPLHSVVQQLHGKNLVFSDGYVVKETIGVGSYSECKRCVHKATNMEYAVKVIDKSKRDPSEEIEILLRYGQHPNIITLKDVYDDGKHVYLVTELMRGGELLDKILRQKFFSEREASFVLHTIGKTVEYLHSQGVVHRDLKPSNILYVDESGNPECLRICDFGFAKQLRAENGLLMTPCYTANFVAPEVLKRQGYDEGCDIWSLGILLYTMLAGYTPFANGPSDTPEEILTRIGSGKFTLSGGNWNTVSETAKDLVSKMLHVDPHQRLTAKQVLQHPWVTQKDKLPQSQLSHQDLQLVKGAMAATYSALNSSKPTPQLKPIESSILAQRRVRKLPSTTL
# Text: as §1
# [7] = molecular target: PKBb (Homo sapiens, UniProt P31751); experiment: Kinase profiling PKBb; settings: for residual kinase activity, PKBb: 100 micromolar inhibitor concentration, 100 is no change
# Text: as §1
# [8] = molecular target: PKA (Homo sapiens, UniProt P17612); experiment: Kinase profiling PKA; settings: 100 micromolar inhibitor concentration, 100 is no change
# Text: as §1
# [9] = molecular target: PKCa (Homo sapiens, UniProt P17252); experiment: Kinase profiling PKCa; settings: 100 micromolar inhibitor concentration, 100 is no change
# Text: as §1
# [10] = molecular target: MSK1 (Homo sapiens, UniProt O75582); experiment: Kinase profiling MSK1; settings: 100 micromolar inhibitor concentration, 100 is no change
# MSK1, sequence (O75582 whole entry, species assumed): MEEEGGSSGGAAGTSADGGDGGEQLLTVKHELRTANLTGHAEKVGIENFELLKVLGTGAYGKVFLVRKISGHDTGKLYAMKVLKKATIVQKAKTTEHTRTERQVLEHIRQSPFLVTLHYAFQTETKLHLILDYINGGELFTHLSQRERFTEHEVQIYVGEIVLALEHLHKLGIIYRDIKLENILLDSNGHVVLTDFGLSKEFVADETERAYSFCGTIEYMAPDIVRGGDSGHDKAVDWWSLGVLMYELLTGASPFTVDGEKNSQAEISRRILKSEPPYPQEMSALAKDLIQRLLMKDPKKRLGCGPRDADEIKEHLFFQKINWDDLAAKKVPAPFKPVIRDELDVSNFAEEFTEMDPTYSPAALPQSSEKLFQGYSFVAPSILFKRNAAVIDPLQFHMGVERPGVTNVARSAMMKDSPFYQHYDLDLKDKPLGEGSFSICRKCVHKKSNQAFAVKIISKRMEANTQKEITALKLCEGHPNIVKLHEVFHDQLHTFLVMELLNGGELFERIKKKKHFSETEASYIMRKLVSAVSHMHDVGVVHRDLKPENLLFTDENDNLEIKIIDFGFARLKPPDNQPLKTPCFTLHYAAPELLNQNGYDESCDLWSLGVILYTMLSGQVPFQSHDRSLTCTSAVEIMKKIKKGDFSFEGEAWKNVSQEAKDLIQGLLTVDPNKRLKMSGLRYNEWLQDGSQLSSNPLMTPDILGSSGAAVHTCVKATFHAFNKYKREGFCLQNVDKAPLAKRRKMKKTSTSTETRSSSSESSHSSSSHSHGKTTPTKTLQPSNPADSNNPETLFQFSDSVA
# Text: as §1
# [11] = molecular target: SmMLCK (Homo sapiens, UniProt Q15746); experiment: Kinase profiling SmMLCK; settings: 100 micromolar inhibitor concentration, 100 is no change
# [12] = system: CK2; experiment: Kinase profiling CK2; settings: 100 micromolar inhibitor concentration; 100 is no change
# Text: as §1
# [13] = molecular target: DYRK1A (Homo sapiens, UniProt Q13627); experiment: DYRK 1A assay (kinase profiling); settings: 100 micromolar inhibitor concentration, 100 is no change
# Protocol: Assays are stopped by addition of 5 μl of 0.5 M (3%) orthophosphoric acid and then harvested onto P81 Unifilter plates with a wash buffer of 50 mM orthophosphoric acid.
# as §1
# [14] = molecular target: NEK6 (Homo sapiens, UniProt Q9HC98); experiment: Kinase profiling NEK6; settings: 100 micromolar inhibitor concentration, 100 is no change
# NEK6, sequence (Q9HC98 whole entry, species assumed): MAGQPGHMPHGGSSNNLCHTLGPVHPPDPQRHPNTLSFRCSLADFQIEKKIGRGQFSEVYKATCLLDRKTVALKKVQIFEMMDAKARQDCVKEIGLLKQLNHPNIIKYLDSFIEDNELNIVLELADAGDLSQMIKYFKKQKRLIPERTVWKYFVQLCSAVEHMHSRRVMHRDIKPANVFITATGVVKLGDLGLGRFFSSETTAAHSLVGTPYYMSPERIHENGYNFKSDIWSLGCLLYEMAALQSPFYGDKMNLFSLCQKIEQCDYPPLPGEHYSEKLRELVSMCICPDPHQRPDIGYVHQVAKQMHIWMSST
# Text: as §1
# [15] = molecular target: T3, TTK (Homo sapiens, UniProt P33981); experiment: Kinase profiling TTK; settings: 100 micromolar inhibitor concentration, 100 is no change
# T3 sequence (P33981 1-857): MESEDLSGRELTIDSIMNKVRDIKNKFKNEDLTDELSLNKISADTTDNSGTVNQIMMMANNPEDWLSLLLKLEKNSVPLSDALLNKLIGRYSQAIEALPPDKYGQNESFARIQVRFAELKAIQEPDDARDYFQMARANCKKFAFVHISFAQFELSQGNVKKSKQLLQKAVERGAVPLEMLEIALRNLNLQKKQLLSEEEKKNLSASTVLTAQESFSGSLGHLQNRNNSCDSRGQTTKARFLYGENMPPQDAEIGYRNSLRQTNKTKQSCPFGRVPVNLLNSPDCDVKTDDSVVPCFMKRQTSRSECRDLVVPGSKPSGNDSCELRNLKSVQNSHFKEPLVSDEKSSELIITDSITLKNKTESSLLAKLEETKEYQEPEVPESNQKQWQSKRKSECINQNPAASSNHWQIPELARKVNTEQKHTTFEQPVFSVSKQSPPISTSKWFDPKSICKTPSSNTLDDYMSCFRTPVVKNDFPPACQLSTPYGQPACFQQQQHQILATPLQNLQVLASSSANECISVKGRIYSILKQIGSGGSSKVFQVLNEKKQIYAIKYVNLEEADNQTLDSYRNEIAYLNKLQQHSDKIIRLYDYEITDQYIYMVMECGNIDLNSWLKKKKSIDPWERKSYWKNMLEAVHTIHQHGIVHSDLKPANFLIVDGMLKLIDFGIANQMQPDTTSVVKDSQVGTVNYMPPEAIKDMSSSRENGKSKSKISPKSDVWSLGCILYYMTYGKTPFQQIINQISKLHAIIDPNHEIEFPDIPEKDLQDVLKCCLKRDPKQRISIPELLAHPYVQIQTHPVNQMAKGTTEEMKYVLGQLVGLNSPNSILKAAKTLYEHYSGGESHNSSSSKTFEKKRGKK
# Text: as §1
# [16] = molecular target: Lck (Homo sapiens, UniProt P06239); experiment: Kinase profiling Lck; settings: 100 micromolar inhibitor concentration, 100 is no change
# Lck, sequence (P06239 whole entry, species assumed): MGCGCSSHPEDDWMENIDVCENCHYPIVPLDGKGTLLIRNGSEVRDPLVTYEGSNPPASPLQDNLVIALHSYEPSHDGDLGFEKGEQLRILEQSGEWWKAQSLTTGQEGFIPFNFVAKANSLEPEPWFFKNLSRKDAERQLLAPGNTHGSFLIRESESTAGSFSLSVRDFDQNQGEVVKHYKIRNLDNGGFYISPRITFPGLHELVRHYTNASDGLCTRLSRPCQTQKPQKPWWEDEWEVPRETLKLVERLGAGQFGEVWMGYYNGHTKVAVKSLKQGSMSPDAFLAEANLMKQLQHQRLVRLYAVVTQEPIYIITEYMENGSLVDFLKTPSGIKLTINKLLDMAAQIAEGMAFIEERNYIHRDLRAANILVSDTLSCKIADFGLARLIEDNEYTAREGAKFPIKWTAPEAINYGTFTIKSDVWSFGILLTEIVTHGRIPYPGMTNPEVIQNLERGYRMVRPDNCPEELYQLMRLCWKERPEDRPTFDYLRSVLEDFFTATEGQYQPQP
# Text: as §1
# [17] = molecular target: JAK2 (Homo sapiens, UniProt O60674); experiment: Kinase profiling JAK2; settings: 100 micromolar inhibitor concentration, 100 is no change
# Text: as §1
# [18] = molecular target: SYK (Homo sapiens, UniProt P43405); experiment: Kinase profiling SYK; settings: 100 micromolar inhibitor concentration, 100 is no change
# Text: as §1
# [19] = molecular target: EPH-A2 (Homo sapiens, UniProt P29317); experiment: Kinase profiling EPH-A2; settings: 100 micromolar inhibitor concentration, 100 is no change
# EPH-A2, sequence (P29317 24-976, species assumed): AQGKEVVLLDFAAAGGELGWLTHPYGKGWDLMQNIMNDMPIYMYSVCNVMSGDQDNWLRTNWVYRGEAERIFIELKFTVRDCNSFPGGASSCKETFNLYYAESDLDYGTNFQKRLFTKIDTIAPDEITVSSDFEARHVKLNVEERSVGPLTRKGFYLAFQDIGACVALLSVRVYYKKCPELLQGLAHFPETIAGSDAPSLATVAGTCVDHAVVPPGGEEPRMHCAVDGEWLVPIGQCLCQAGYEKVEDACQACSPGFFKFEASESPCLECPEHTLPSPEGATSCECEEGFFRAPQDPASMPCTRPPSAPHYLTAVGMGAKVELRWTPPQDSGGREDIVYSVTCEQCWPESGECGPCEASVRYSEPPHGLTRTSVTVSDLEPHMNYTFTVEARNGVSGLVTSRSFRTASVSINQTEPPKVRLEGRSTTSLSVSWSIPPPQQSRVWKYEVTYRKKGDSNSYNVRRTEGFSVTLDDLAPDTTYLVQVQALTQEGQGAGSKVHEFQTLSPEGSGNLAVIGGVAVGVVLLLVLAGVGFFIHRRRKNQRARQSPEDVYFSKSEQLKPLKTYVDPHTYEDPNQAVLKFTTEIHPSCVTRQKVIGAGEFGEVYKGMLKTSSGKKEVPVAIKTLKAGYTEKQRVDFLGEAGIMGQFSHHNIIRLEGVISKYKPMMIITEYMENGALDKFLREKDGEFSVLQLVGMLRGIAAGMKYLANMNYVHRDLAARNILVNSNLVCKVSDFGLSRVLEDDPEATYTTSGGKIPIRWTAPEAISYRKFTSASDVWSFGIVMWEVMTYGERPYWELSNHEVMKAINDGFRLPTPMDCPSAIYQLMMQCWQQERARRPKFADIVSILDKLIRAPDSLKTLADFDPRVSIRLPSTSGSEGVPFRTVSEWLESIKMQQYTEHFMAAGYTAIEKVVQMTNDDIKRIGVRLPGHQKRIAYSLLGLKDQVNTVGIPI
# Text: as §1
# [20] = molecular target: HER4 (Homo sapiens, UniProt Q15303); experiment: Kinase profiling HER4; settings: 100 micromolar inhibitor concentration, 100 is no change
# Text: as §1
# [21] = molecular target: IGF-1R (Homo sapiens, UniProt P08069); experiment: Kinase profiling IGF-1R; settings: 100 micromolar inhibitor concentration, 100 is no change
# IGF-1R, sequence (P08069 31-1367, species assumed): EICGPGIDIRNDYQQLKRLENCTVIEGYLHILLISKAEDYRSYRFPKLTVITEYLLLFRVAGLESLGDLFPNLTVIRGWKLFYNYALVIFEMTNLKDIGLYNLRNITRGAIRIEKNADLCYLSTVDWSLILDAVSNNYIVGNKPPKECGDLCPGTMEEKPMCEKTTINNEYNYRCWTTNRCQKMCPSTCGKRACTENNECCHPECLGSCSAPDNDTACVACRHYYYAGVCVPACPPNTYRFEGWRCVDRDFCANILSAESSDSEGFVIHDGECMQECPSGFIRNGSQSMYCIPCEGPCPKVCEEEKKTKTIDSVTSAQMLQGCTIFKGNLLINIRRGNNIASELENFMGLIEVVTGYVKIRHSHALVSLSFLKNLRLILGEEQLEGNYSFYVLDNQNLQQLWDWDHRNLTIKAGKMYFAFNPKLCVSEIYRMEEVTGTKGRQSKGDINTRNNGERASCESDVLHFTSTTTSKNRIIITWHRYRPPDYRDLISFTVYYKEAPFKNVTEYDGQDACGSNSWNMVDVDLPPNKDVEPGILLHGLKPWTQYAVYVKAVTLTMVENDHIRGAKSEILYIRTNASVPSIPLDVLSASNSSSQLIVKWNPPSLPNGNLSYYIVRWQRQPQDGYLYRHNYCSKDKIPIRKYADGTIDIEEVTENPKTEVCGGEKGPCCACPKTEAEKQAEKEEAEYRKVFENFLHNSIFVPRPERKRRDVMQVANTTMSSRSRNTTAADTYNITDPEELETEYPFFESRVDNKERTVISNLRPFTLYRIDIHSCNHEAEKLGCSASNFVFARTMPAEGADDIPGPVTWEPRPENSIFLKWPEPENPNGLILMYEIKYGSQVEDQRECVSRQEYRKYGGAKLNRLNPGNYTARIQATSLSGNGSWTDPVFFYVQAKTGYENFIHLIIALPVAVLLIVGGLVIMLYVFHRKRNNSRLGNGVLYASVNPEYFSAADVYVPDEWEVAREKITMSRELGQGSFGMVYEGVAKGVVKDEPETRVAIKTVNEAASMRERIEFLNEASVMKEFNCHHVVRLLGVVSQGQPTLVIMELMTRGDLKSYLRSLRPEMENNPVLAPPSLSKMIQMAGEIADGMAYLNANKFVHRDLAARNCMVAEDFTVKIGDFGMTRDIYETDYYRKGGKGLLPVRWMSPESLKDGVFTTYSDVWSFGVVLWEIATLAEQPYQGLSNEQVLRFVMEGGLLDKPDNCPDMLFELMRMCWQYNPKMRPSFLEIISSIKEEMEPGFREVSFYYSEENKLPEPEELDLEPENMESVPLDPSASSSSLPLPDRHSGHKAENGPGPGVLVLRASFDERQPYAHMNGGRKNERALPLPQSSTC
# Text: as §1
# ERK1, sequence (P27361 whole entry, species assumed): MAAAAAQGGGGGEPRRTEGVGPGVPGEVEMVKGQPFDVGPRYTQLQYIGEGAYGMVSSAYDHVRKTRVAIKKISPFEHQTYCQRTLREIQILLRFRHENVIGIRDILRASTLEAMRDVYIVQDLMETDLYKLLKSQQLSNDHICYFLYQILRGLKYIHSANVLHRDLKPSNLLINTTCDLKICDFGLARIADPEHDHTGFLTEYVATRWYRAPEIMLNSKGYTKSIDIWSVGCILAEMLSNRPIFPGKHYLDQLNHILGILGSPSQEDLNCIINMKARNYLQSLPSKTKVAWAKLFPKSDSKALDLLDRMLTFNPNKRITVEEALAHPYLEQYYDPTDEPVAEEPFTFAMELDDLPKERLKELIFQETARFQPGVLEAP
SMILES,"residual kinase activity, CK2 [12]","residual kinase activity, ERK1 [1]","residual kinase activity, ERK2 [2]","residual kinase activity, JNK2 [3]","residual kinase activity, p38g MAPK [4]","residual kinase activity, p38d MAPK [5]","residual kinase activity, RSK1 [6]","residual kinase activity, PKBb [7]","residual kinase activity, PKA [8]","residual kinase activity, PKCa [9]","residual kinase activity, MSK1 [10]","residual kinase activity, SmMLCK [11]","residual kinase activity, DYRK1A [13]","residual kinase activity, NEK6 [14]","residual kinase activity, TTK [15]","residual kinase activity, Lck [16]","residual kinase activity, JAK2 [17]","residual kinase activity, SYK [18]","residual kinase activity, EPH-A2 [19]","residual kinase activity, HER4 [20]",also measured
COc1ccc2sc(NC(C)=O)nc2c1 [Compound 03-21],87,,,,,,,,,,,,,,,,,,,,"remaining activity at 100 µM ([1]; read-out: residual kinase activity, ERK1): 87%; remaining activity at 100 µM ([2]; read-out: residual kinase activity, ERK2): 109%; remaining activity at 100 µM ([3]; read-out: residual kinase activity, JNK2): 92%; remaining activity at 100 µM ([4]; read-out: residual kinase activity, p38g MAPK): 56%; remaining activity at 100 µM ([5]; read-out: residual kinase activity, p38d MAPK): 75%; remaining activity at 100 µM ([6]; read-out: residual kinase activity, RSK1): 93%; remaining activity at 100 µM ([7]; read-out: residual kinase activity, PKBb): 92%; remaining activity at 100 µM ([8]; read-out: residual kinase activity, PKA): 11%; remaining activity at 100 µM ([9]; read-out: residual kinase activity, PKCa): 101%; remaining activity at 100 µM ([10]; read-out: residual kinase activity, MSK1): 93%; remaining activity at 100 µM ([11]; read-out: residual kinase activity, SmMLCK): 50%; remaining activity at 100 µM ([13]; read-out: residual kinase activity, DYRK1A): 2%; remaining activity at 100 µM ([14]; read-out: residual kinase activity, NEK6): 108%; remaining activity at 100 µM ([15]; read-out: residual kinase activity, TTK): 67%; remaining activity at 100 µM ([16]; read-out: residual kinase activity, Lck): 109%; remaining activity at 100 µM ([17]; read-out: residual kinase activity, JAK2): 88%; remaining activity at 100 µM ([18]; read-out: residual kinase activity, SYK): 72%; remaining activity at 100 µM ([19]; read-out: residual kinase activity, EPH-A2): 89%; remaining activity at 100 µM ([20]; read-out: residual kinase activity, HER4): 94%; remaining activity at 100 µM ([21]; read-out: residual kinase activity, IGF-1R): 78%"
CC(=O)Nc1nc2ccccc2s1 [Compound 03-32],96,83,149,105,109,80,86,112,91,104,98,81,43,92,71,91,66,116,111,78,"residual kinase activity, IGF-1R [21]: 74"
O=C(Nc1nc2cc(O)ccc2s1)c1cccnc1 [Compound 03-33],88,93,107,92,85,103,73,93,102,105,92,52,29,107,45,105,70,86,108,48,"residual kinase activity, IGF-1R [21]: 50"
O=C(Nc1nc2ccc(O)cc2s1)c1ccccc1 [Compound 03-60],16,67,82,107,58,75,28,86,97,97,31,15,2,97,19,92,36,64,77,16,"residual kinase activity, IGF-1R [21]: 18"
